Test results: patent publication US20030206968A1, “Fungicidal mixtures” (priority 1999, published 2003)

Tests used:
Assay type in all cases: in vivo
Blumeria graminis [1] = assay: Greenhouse, Blumeria graminis on barley, 2 days curative
Experimental: (§1) The trials are carried out under greenhouse (Examples 1 to 32) or field conditions (Examples 33 to 40) in residual or curative applications. The fungicides are applied in single treatments, or in a combination comprising an azolopyrimidine of formula I and a compound selected from the classes (A), (B) and (C) as defined above. The compounds are applied in form of an aqueous spray mix obtained from a concentrated formulation or the technical material.
(§2) 1. Seed is planted in 6 cm diameter plastic pots and maintained in the greenhouse.
(§3) 2. When the primary leaf is fully expanded in the case of cereals or several leaves are present in the case of dicots, formulated test compounds are sprayed with a three nozzle overhead fungicide sprayer to near run-off. Alternatively, a single nozzle overhead track sprayer is used for application of the compounds to cereals at a rate of 200 l/ha. Plants are then allowed to air-dry.
(§4) 3. Inoculation precedes treatment in the case of curative evaluations and follows treatment in case of residual evaluations. For inoculation of powdery mildew disease, plants are set up on greenhouse benches with bottom watering mats and inoculated by dusting them with conidia from infected plants. Between inoculation and treatment for curative evaluations and between treatment and inoculation for residual evaluations, plants are maintained in the greenhouse with bottom watering.
(§5) 4. Disease on the foliage as percent leaf area with disease symptoms/signs is evaluated about 7 days after inoculation. In the case of wheat, the tips and bases of the leaves are excluded from the evaluation. [formula]
(§6) 1. Technical compounds are formulated in a solvent/surfactant system consisting of 5% acetone and 0.05% Tween 20 in deionized water. Compounds are dissolved in acetone prior to addition of the water; the Tween 20 can be added through either the acetone or the water. Dilutions are made using the solvent/surfactant system. Formulated compounds are prepared using deionized water.
(§7) 2. Two kinds of controls are included: Plants treated with the solvent/surfactant solution and inoculated (Solvent Blank). Untreated plants which are inoculated (Inoculated Control).
(§8) Assessments of the diseases took place at the indicated day after the application of the compounds. Per cent infected leaf area infected was evaluated. The efficacy of the compounds/compounds mixtures to control the diseases was calculated by using the formula given above under item 4: […]
(§9) Synergy was calculated using the % disease control values of specific treatments for the two COLBY formula given hereinabove
Fungicidal efficacy of the mixture of (S)-Azolopyrimidine C in admixture with Fenhexamid (2 days curative) against Blumeria graminis on barley. The tank mixes were obtained from technical material of (S)-Azolopyrimidine C and Fenhexamid.
Fungicidal efficacy of the mixture of (S)-Azolopyrimidine C in admixture with Azoxystrobin or Trifloxystrobin (2 days curative) against Blumeria graminis on barley. The tank mixes were obtained from technical material of (S)-Azolopyrimidine C and Azoxystrobin or Trifloxystrobin.

Blumeria graminis [2] = assay: Greenhouse, Blumeria graminis on barley, 4 days residual; details: Example 32
Experimental: as §1, §2, §3, §4, §5, §6, §7, §8, §9
Fungicidal efficacy of the mixture of (S)-Azolopyrimidine C in admixture with Azoxystrobin (4 days residual) against Blumeria graminis on barley. The tank mixes were obtained from technical material of (S)-Azolopyrimidine C and Azoxystrobin.

Blumeria graminis [3] = assay: Field test, Blumeria graminis on wheat; details: 17 days after application
Method in brief: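 Field trial on wheat: formulated products (SC/EC tank mixes, alone or in mixtures) sprayed as aqueous mix at 400 l/ha by good agricultural practice. Percent infected leaf area assessed 15 or 17 days after application; efficacy calculated as disease control, with synergy judged by the Colby formula.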

Puccinia recondita = assay: Greenhouse, Puccinia recondita on wheat, 2 days curative; details: Example 28
Experimental: as §1, §2, §3, §4
For inoculation of non-powdery mildew diseases, an aqueous spore suspension of the pathogen is applied to the plant and the plants are kept 1-2 days in a moist infection chamber before being returned to the greenhouse where they are maintained by bottom watering.
as §5, §6, §7, §8, §9
Fungicidal efficacy of the mixture of (S)-Azolopyrimidine C in admixture with Azoxystrobin or Trifloxystrobin (2 days curative) against Puccinia recondita on wheat. The tank mixes were obtained from technical material of (S)-Azolopyrimidine C and Azoxystrobin or Trifloxystrobin.

Blumeria graminis [4] = assay: Greenhouse, Blumeria graminis on wheat, 1 day residual
Description: as §1, with “The” for “The trials are carried out under greenhouse (Examples 1 to 32) or field conditions (Examples 33 to 40) in residual or curative applications. The”
as §2, §3, §4, §5, §6, §7, §8, §9
Fungicidal efficacy of the mixture of Azolopyrimidine C+quinoxyfen (1 day residual)) against Blumeria graminis on wheat The tank mix was obtained from technical material of Azolopyrimidine C and quinoxyfen.
Fungicidal efficacy of the mixture of Azolopyrimidine C+metalaxyl (1 day residual) against Blumeria graminis on wheat The tank mix was obtained from technical material of Azolopyrimidine C and metalaxyl.
Fungicidal efficacy of the mixture of Azolopyrimidine C+famoxadone (1 day residual) against Blumeria graminis on wheat The tank mix was obtained from technical material of Azolopyrimidine C and famoxadone.

For “5-chloro-6-(2,4,6-trifluorophenyl)-7-(1,1,1-trifluoroprop-2-ylamino)-[1,2,4]triazolo[1,5-a]pyrimidine [(S)-Azolopyrimidine C]”, the “Observed Efficacy” value (Blumeria graminis [1]; Example 26, dose rate 0.74 ppm) was 0%, the “Observed Efficacy” value (Blumeria graminis [1]; Example 26, dose rate 2.2 ppm) was 8% and the “Observed Efficacy” value (Blumeria graminis [1]; Example 26, dose rate 6.7 ppm) was 29%. For the same molecule, the “Observed Efficacy” value (Blumeria graminis [1]; Example 26, dose rate 20 ppm) was 37%, the “Observed Efficacy” value (Blumeria graminis [1]; Example 26, dose rate 60 ppm) was 60% and the “Observed Efficacy” value (Blumeria graminis [1]; Example 26, dose rate 180 ppm) was 86%. The “Observed Efficacy” value (Blumeria graminis [1]; Example 29, dose rate 1.6 ppm) was 0%, the “Observed Efficacy” value (Blumeria graminis [1]; Example 29, dose rate 3.1 ppm) was 1% and the “Observed Efficacy” value (Blumeria graminis [1]; Example 29, dose rate 6.3 ppm) was 15%. The “Observed Efficacy” value (Blumeria graminis [1]; Example 29, dose rate 12.5 ppm) was 31%, the “Observed Efficacy” value (Blumeria graminis [1]; Example 29, dose rate 25 ppm) was 54% and the “Observed Efficacy” value (Blumeria graminis [1]; Example 29, dose rate 50 ppm) was 73%. The “Observed Efficacy” value (Blumeria graminis [2]; dose rate 1.6 ppm) was 0%, the “Observed Efficacy” value (Blumeria graminis [2]; dose rate 3.1 ppm) was 3% and the “Observed Efficacy” value (Blumeria graminis [2]; dose rate 6.3 ppm) was 8%. For the same molecule, the “Observed Efficacy” value (Blumeria graminis [2]; dose rate 12.5 ppm) was 17%, the “Observed Efficacy” value (Blumeria graminis [2]; dose rate 25 ppm) was 22% and the “Observed Efficacy” value (Blumeria graminis [2]; dose rate 50 ppm) was 28%. The “Observed Efficacy” value (Blumeria graminis [3]; Table XXXVI, (S)-Azolopyrimidine C 25 g/ha alone) was 63, the “Observed Efficacy” value (Blumeria graminis [3]; Table XXXVI, (S)-Azolopyrimidine C 50 g/ha alone) was 78 and the “Observed Efficacy” value (Blumeria graminis [3]; Table XXXVI, (S)-Azolopyrimidine C 75 g/ha alone) was 74. For the same molecule, the “Observed Efficacy” value (Blumeria graminis [3]; Table XXXVII, (S)-Azolopyrimidine C 25 g/ha alone) was 63, the “Observed Efficacy” value (Blumeria graminis [3]; Table XXXVII, (S)-Azolopyrimidine C 50 g/ha alone) was 78 and the “Observed Efficacy” value (Blumeria graminis [3]; Table XXXVII, (S)-Azolopyrimidine C 75 g/ha alone) was 74. The “Observed Efficacy” value (Blumeria graminis [3]; Table XXXVII, (S)-Azolopyrimidine C 100 g/ha alone) was 96, the “Observed Efficacy” value (Puccinia recondita; dose rate 1.6 ppm) was 0% and the “Observed Efficacy” value (Puccinia recondita; dose rate 3.1 ppm) was 0%. The “Observed Efficacy” value (Puccinia recondita; dose rate 6.3 ppm) was 8%, the “Observed Efficacy” value (Puccinia recondita; dose rate 12.5 ppm) was 23% and the “Observed Efficacy” value (Puccinia recondita; dose rate 25 ppm) was 54%.
`CC(Nc1c(-c2c(F)cc(F)cc2F)c(Cl)nc2ncnn12)C(F)(F)F` (stereo not drawn) [Azolopyrimidine C, 5-chloro-6-(2,4,6-trifluorophenyl)-7-(1,1,1-trifluoroprop-2-ylamino)-[1,2,4]triazolo[1,5-a]pyrimidine] was tested, and the “Observed Efficacy” value (Blumeria graminis [4]; Example 16, dose rate 0.06 ppm) was 0%, the “Observed Efficacy” value (Blumeria graminis [4]; Example 16, dose rate 0.25 ppm) was 19% and the “Observed Efficacy” value (Blumeria graminis [4]; Example 16, dose rate 1 ppm) was 42%. The “Observed Efficacy” value (Blumeria graminis [4]; Example 16, dose rate 4 ppm) was 96%, the “Observed Efficacy” value (Blumeria graminis [4]; Example 17, dose rate 0.06 ppm) was 0% and the “Observed Efficacy” value (Blumeria graminis [4]; Example 17, dose rate 0.25 ppm) was 19%. The “Observed Efficacy” value (Blumeria graminis [4]; Example 17, dose rate 1 ppm) was 42%, the “Observed Efficacy” value (Blumeria graminis [4]; Example 17, dose rate 4 ppm) was 96% and the “Observed Efficacy” value (Blumeria graminis [4]; Example 18, dose rate 0.06 ppm) was 0%. The “Observed Efficacy” value (Blumeria graminis [4]; Example 18, dose rate 0.25 ppm) was 19%, the “Observed Efficacy” value (Blumeria graminis [4]; Example 18, dose rate 1 ppm) was 42% and the “Observed Efficacy” value (Blumeria graminis [4]; Example 18, dose rate 4 ppm) was 96%.
